Reference: paper PMC7934871 (JCI Insight, 2021)

What was measured:
pY694-STAT5 = experiment: Western blotting of p-STAT5 in HCT116 cells; type: cell-based, human; conditions: HCT116, 1 µM, 48 hours
Method: Whole cell lysates or tissue homogenates were prepared by using RIPA lysis buffer (50 mM Tris at pH 7.4, 150 mM NaCl, 1 mM EDTA, 0.5% NP-40, 1 mM NaF, 15% glycerol, and 20 mM β-glycerophosphate). A protease inhibitor cocktail (Mini Protease Inhibitor Cocktail; Roche) and a tyrosine phosphatase inhibitor, sodium orthovanadate (Na3VO4, 1 mM), were added freshly to the lysis buffer. Protein amounts were determined by BCA using a Thermo Fisher Scientific kit. Normalized protein amounts were subjected to an SDS-PAGE and transferred onto a nitrocellulose membrane for Western blotting. Proteins were visualized with a chemiluminescent detection kit (Pierce, Thermo Fisher Scientific). The protein levels for STAT1 (sc-346, E-23), STAT3 (sc-482, C-20), STAT5 (sc-74442, A-9), Crm1 (exportin 1) (sc-5595, H-300), CAS (exportin 2) (sc-271537, H-2), exportin 5 (sc-66885, H-300), and exportin 7 (sc-98639, H-82) were determined using antibodies from Santa Cruz Biotechnology Inc. Anti–exportin 3 (exportin T, 630622, LOS1 05-1525), anti–exportin 4 (3499-1), and anti–exportin 6 (11408-1-AP) were from MilliporeSigma, Epitomics, and Proteintech, respectively. […]
Supplemental Figure 4 (related to Figure 1). […] Phosphorylation of STAT3 at Y705 and STAT5 at Y694 was detected by Western blotting after 48 hours treatment of PS-acet.-STAT3 peptide (1 µM) or napabucasin (1 µM) in HCT116 cells. […]

STAT3 = STAT3 (Homo sapiens, UniProt P40763); experiment: Immunoprecipitation and Western blotting, STAT3; type: binding; set-up: endogenous in cells; host or cells: U251; conditions: immunoprecipitation, Western blotting, U251 cells
Excerpt: Figure 2 PS-acet.-STAT3-peptide specifically binds STAT3 in the nucleus. (A) Penetration of PS-acet.-STAT3 peptide and its colocalization with STAT3 protein in U251 cells are confirmed by confocal microscopy. Scale bars: 50 μm. Insets: original magnification, ×40. (B) PS-acet.-STAT3 peptide specifically binds to STAT3 protein, not STAT1 and STAT5 proteins, shown in U251 cells by immunoprecipitation followed by Western blotting (left panel). Expression of total STAT1, STAT3, and STAT5 was confirmed by Western blotting in U251 cells (input protein level, right panel).
Whole cell lysates or tissue homogenates were prepared by using RIPA lysis buffer (50 mM Tris at pH 7.4, 150 mM NaCl, 1 mM EDTA, 0.5% NP-40, 1 mM NaF, 15% glycerol, and 20 mM β-glycerophosphate). […] Protein amounts were determined by BCA using a Thermo Fisher Scientific kit. […] The protein levels for STAT1 (sc-346, E-23), STAT3 (sc-482, C-20), STAT5 (sc-74442, A-9), Crm1 (exportin 1) (sc-5595, H-300), CAS (exportin 2) (sc-271537, H-2), exportin 5 (sc-66885, H-300), and exportin 7 (sc-98639, H-82) were determined using antibodies from Santa Cruz Biotechnology Inc. Anti–exportin 3 (exportin T, 630622, LOS1 05-1525), anti–exportin 4 (3499-1), and anti–exportin 6 (11408-1-AP) were from MilliporeSigma, Epitomics, and Proteintech, respectively. […]

splenic CD8+ T cells = experiment: CD8+ T cell activation and ELISA (IFN-γ, IL-2); type: cell-based, mouse; conditions: anti-CD3/CD28 activated, 20 ng/mL IL-6, 1 μM peptide, 48 hours, ELISA, n = 4
Method: Data are representative of 3 independent experiments (n = 3). […] Data represent 4 independent experiments (n = 4). SD is shown. One-way ANOVA; ****P < 0.001.
CD8^+ T cells were isolated from C57BL/6 mice spleens as described above. A 96-well plate (Cellstar) was precoated with 2 μg/mL anti-CD3 antibody (BioLegend, clone 145-2c11, 100331) at 4°C overnight (BioLegend), and 1–2 × 10^5 cells were seeded into each well, followed by adding 2 μg/mL soluble CD28 (BioLegend, clone 37-51, 102012) and stimulation with 20 ng/mL IL-6. PS-unacet.-STAT3, PS-STAT3-K685R, and PO- or PS-acet.-STAT3 peptides at a concentration of 1 μM were added to the cells. Peptide treatment was repeated on the following day. Control cells were treated with HBSS. After 48 hours’ treatment with peptides at 37°C, supernatants were assessed for IFN-γ and IL-2 production by R&D, Bio-Techne, kits (DY402 and DY406), according to manufacturer’s instruction.

p53 promoter = experiment: Luciferase reporter gene assay, p53 promoter; type: cell-based, human; conditions: HCT116, 1 μM, overnight at 37°C
Excerpt: Figure 3 PS-acet.-STAT3 peptide inhibits STAT3 activity and downregulates the expression of STAT3 targets. (A) Downregulation of STAT3 activity and its downstream target proteins shown in human HCT116 colorectal cancer cells by Western blotting (data represent 1 of the 3 experiments, n = 3). PO-acet.-STAT3 and PS-STAT3-K685R peptides were used in parallel as controls. (B) STAT3 inhibition regulated the expression of proliferation and apoptotic genes, assessed by real-time quantitative PCR. Data present mean ± SD, n = 3 independent experiments, 1-way ANOVA; ***P < 0.005; **P < 0.01. […] For p53 promoter assay, data represent 3 replicates in 3 independent experiments (n = 9). For cell proliferation assay, data represent 3 independent experiments. SD is shown (n = 3). One-way ANOVA; ***P < 0.005; **P < 0.01.
A total of 1–2 × 10^6 HCT116 cells were seeded into each well of a 24-well plate (Cellstar) and transfected with a 13x RGC plasmid, with a Renilla luciferase construct (both plasmids provided by Bernhard Lüscher, RWTH, Aachen, Germany), using Lipofectamine 2000 (Invitrogen, Thermo Fisher Scientific), according to manufacturer’s instruction. On the following day, cells were treated with 1 μM of PO- and PS-acet.-STAT3 peptides at 37°C overnight. Luciferase activities were determined using the luciferase assay system (Promega).

Sequence of STAT3 (P40763 whole entry): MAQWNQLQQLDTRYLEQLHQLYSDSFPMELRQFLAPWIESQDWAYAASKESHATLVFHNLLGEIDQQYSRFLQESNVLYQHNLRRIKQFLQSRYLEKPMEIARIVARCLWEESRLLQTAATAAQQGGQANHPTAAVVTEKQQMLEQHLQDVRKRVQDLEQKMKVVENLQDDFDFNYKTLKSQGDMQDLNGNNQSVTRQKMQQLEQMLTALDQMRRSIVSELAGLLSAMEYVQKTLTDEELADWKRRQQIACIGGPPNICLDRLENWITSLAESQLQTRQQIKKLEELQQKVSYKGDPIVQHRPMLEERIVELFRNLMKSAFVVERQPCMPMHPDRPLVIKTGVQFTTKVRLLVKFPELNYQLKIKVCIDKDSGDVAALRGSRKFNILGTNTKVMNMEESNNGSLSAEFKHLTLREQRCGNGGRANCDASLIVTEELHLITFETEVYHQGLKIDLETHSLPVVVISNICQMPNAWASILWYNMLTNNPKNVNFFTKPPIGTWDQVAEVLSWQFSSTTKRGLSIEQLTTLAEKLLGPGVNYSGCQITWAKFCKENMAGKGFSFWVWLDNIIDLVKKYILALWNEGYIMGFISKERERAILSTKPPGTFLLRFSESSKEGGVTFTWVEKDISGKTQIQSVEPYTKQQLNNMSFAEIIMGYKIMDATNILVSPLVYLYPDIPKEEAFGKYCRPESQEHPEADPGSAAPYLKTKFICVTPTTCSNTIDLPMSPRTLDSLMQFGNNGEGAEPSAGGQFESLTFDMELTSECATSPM

In the case of “PDIPKEEAFGK685(Ac)YCRPESQEHPC-linker-T*C*C*A*T*G*A*G*C*T*T*C*C*T*G*A*T*G*C*T [PS-acet.-STAT3 peptide]”, the “p-STAT5 (Y694) level” value (pY694-STAT5) is reported as “not”, the “binding to STAT3 protein” value (STAT3) is reported as “specifically bound” and the “interferon-γ (IFN-γ) and IL-2 production by CD8+ T cells” value (splenic CD8+ T cells) is reported as “induced”. The p53 promoter activity (p53 promoter) was “significant increase”.
